According to US20160067347A1, “APJ RECEPTOR AGONISTS AND USES THEREOF” (AMGEN INC., priority 2012, published 2016):
pEC50: −log10 of the molar value.

Tests used:
human APJ = target: T1, human APJ (Homo sapiens, UniProt P35414); assay: cAMP assay, stable CHO cell line expressing human APJ; format: cell-based; conditions: FIG. 5; cAMP seen with either human or rat APJ stable cell lines
T1 construct: expressed in transfected cells
T1 sequence (P35414 1-380): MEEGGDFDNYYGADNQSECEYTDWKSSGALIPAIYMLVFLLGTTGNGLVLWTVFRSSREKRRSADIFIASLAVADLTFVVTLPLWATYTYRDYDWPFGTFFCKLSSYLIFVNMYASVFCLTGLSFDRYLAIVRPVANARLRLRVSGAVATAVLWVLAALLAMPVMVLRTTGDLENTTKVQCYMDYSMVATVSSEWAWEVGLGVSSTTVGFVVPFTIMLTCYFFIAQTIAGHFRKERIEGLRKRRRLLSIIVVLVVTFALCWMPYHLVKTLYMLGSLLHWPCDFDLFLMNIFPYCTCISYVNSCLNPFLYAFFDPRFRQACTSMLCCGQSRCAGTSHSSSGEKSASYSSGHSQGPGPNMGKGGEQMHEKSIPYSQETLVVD
Description: Stable CHO cell lines expressing APJ were used for cAMP assays. The cells were incubated with stimulation buffer containing HANK's buffer, forskolin and 0.5 mM IBMX in the absence or presence of various concentrations' of peptides at 37° C. for 45 min. The cAMP level was determined using a cyclic AMP kit (DiscoverX) according to the manufacturer's instructions.

[1] = test system: isolated Langendorff rat heart; assay: Langendorff isolated rat heart, hemodynamic cardiac function; conditions: control rats, FIGS. 7 and 8
Excerpt: To assess the hemodynamic cardiac function of the peptides a Langendorff isolated heart system was used. The isolated heart from rat provides broad spectrum of measurements that can include biochemical, metabolic, morphological and physiological indices. The limitations/advantages of the method include absence of neurohormonal influences, neural regulation and high coronary flows. Such limitations, however, are offset by the ability to study direct cardiac effects without systemic circulation and a host of peripheral interactions.
The reproducibility and accuracy of measurements and relatively low costs over in vivo studies for profiling drugs outweigh any limitations of this method. Therefore, this method provides excellent dose-response relationship and sheds critical insight into the pharmacological and physiological properties of the molecules of interest.
The animals were anesthetized upon administration of 50-100 mg/kg dose of sodium pentobarbital for rat via the intraperitoneal route. The heart was excised and gently cradled between fingers to avoid injury followed by lifting slightly before incising the aorta, vena cava and pulmonary vessels Immediately after excision of the heart with aorta, the heart was mounted onto the cannula in the Langendorff apparatus via the aorta. The heart was perfused with modified oxygenated Krebs-Henseleit buffer pH7.5 and equilibrated with 95% O2/5% CO2 at 37° C. The perfusion was performed at a constant flow of 10 ml/min and paced at 300 bpm. The pressure was measured through a pressure sensing balloon catheter inserted in the LV cavity. The intrinsic inotropy (force of muscle contraction) and lusitropy (cardiac relaxation) effects of the heart were assessed by dp/dtmax and dp/dtmin.
These figures illustrate improvement in both systolic and diastolic function of normal hearts with peptides of SEQ ID NOs: 23 and 24.

rat APJ receptor = target: T2, rat APJ receptor (Rattus norvegicus, UniProt Q9JHG3); assay: [35S]GTPγS assay, membranes from stable cell lines, rat APJ; format: biochemical; conditions: FIG. 10; effect of PEG size (20 kDa vs 40 kDa)
T2 construct: expressed in transfected cells; CHO is named only for the cAMP assay
T2 sequence (Q9JHG3 1-377): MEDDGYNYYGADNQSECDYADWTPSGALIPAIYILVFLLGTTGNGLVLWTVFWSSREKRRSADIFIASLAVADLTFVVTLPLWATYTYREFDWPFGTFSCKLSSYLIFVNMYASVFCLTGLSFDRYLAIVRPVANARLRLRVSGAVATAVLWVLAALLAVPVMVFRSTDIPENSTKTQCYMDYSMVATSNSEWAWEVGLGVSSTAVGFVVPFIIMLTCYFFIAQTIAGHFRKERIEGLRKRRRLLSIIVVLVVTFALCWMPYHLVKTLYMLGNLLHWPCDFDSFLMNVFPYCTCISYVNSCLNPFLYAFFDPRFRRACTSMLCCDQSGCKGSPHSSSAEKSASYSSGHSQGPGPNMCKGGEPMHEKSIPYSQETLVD
Description: To assay for GTP, membranes were prepared from stable cell lines and used to determine the efficacy/potency of the modified peptides. The optimal experimental conditions for the concentrations of GDP, MgCl2 and NaCl in the assay buffer were initially determined. The membranes were incubated with modified peptides in the assay buffer. The reaction was initiated by addition of [^35S] GTPγS in the absence or presence of peptides and incubated at room temperature for 90 min. […] Bound [^35S] GTPγS was separated from free radiolabel by filtration. The filter bound radioactivity was determined by liquid scintillation counting.
A series of PEGylated peptides were prepared and screened in vitro to explore the effects of PEG size and peptide valency on potency and efficacy in the GTPγS assay. In the assay 20 kDA and 40 kDA PEG were compared (FIG. 10).
Additionally mono- and multivalent bis, and tetrakis-peptide conjugated PEGS were prepared to explore peptide valency. […]

in vitro = conditions: rat, plasma
Description: Apelin peptides were spiked into freshly prepared mouse, rat, dog and human EDTA plasma to a final concentration of 5 μM. The plasma samples were then incubated at 37° C. over a period of 4 hr. Up to 8 time points were sampled to facilitate estimation of in vitro half life in plasma matrices. In a typical experiment, aliquot of 100 μL of plasma sample was taken from the incubation vial, followed by addition of 300 μL of MeOH containing internal standard. The quenched sample was centrifuged at 5500 g for 15 min after 15 min vortex in room temperature. The supernatant was then analyzed by high resolution LC-MS.

FIGURE 4B = assay: FIGURE 4B
Excerpt: Table printed on a drawing sheet, FIGURE 4B
Section band inside the table: Peptides with triazole linker and 20 kDa PEG modification
The patent's description of the figure: FIGS. 4A-B. In vitro stability of APJ agonists in plasma.
First reader's note: Rows 3 and 9 of the grid are section headings spanning all columns (linker type of the 20 kDa PEGylated peptides).

Molecule	agonist activity relative to pyr apelin-13 (SEQ ID NO: 128) (human APJ)	remaining at 1 h, 5 μM (in vitro) [%]	in vitro plasma stability (t1/2, min) | HUMAN (FIGURE 4B) [min]	in vitro plasma stability (t1/2, min) | MOUSE (FIGURE 4B) [min]	in vitro plasma stability (t1/2, min) | RAT (FIGURE 4B) [min]	other results
3-(1-(2-(mPEG(20kDa))ethyl)-1H-1,2,3-triazol-4-yl)alanine-[hArg68;Cha69;Oic74;Nle75;4-Cl-F77]Apelin-17(61-77) [SEQ ID NO: 25]	potent and act as a full agonist					
3-((2-(3-(mPEG(20kDa))propylamino)-2-oxoethyl)thio)propanamide-[hArg68;Cha69;Oic74;Nle75;4-Cl-Phe77]Apelin-17(61-77) [SEQ ID NO: 24]	potent and act as a full agonist					dp/dtmax [1]: dose dependent increase; dp/dtmin [1]: decrease; systolic pressure [1]: increases; pEC50 (rat APJ receptor): 9.60
CCCC[C@H](NC(=O)[C@@H]1C[C@@H]2CCCC[C@@H]2N1C(=O)CNC(=O)[C@H](CCCCN)NC(=O)[C@H](Cc1c[nH]cn1)NC(=O)[C@H](Cc1cn(CCOCCOCCOCCOCCOCCOCCOCCOCCOCCOCCN)nn1)NC(=O)[C@H](CC(C)C)N(C)C(=O)[C@H](CCCCNC(=N)N)NC(=O)[C@@H]1CCCN1C(=O)[C@H](CCCNC(=N)N)NC(=O)[C@@H]1CCC(=O)N1)C(=O)N[C@@H](Cc1ccc(Cl)cc1)C(=O)O [compound 35]		82				
CCCC[C@H](NC(=O)[C@@H]1C[C@@H]2CCCC[C@@H]2N1C(=O)CNC(=O)[C@H](CCCCN)NC(=O)[C@H](Cc1c[nH]cn1)NC(=O)[C@H](Cc1cn(CCOCCOCCOCCOCCOCCOCCOCCOCCOCCOCCN)nn1)NC(=O)[C@H](CC(C)C)N(C)C(=O)[C@H](CCCCNC(=N)N)NC(=O)[C@@H]1CCCN1C(=O)[C@H](CCCNC(=N)N)NC(=O)[C@@H]1CCC(=O)N1)C(=O)N1CCC[C@H]1C(=O)N[C@@H](Cc1ccc(Cl)cc1)C(=O)O [compound 36]		88				
Atz(20K-mPEG)- KFRRQRP[hArg][Cha]SHKG[Oic][Nle]P[4-Cl-F] [compound 49]			176	55	193	
Atz(20K-mPEG)-LRP[hArg][Cha]SHKG[Oic][Nle]P[4-Cl-F] [compound 50]			264	64	256	
